From the NIST ThermoML archive (doi:10.1016/j.jct.2011.08.016)
± gives the expanded uncertainty stated by the source.

Test: xn = mol fraction of the nth substance listed
Settings: Liquid, Vibrating tube method

CCCCCCCCCC [decane] + CCCCCCCC
mass density (353.12 K, 10000 kPa, x2 = 0.2801): 687.61 ± 0.46 kg/m3 | mass density (353.12 K, 10000 kPa, x2 = 0.5314): 680.99 ± 0.47 kg/m3 | mass density (353.12 K, 10000 kPa, x2 = 0.7736): 673.43 ± 0.47 kg/m3 | mass density (353.12 K, 10990 kPa, x2 = 0.0616): 693.88 ± 0.47 kg/m3 | mass density (353.12 K, 10990 kPa, x2 = 0.2801): 688.64 ± 0.47 kg/m3 | mass density (353.12 K, 10990 kPa, x2 = 0.5314): 682.03 ± 0.47 kg/m3 | mass density (353.12 K, 10990 kPa, x2 = 0.7736): 674.52 ± 0.48 kg/m3 | mass density (353.12 K, 12000 kPa, x2 = 0.0616): 694.85 ± 0.47 kg/m3 | mass density (353.12 K, 12000 kPa, x2 = 0.2801): 689.64 ± 0.47 kg/m3 | mass density (353.12 K, 12000 kPa, x2 = 0.5314): 683.07 ± 0.48 kg/m3 | mass density (353.12 K, 12000 kPa, x2 = 0.7736): 675.55 ± 0.49 kg/m3 | mass density (353.12 K, 13000 kPa, x2 = 0.0616): 695.8 ± 0.48 kg/m3 | mass density (353.12 K, 13000 kPa, x2 = 0.2801): 690.64 ± 0.48 kg/m3 | mass density (353.12 K, 13000 kPa, x2 = 0.5314): 684.09 ± 0.49 kg/m3 | mass density (353.12 K, 13000 kPa, x2 = 0.7736): 676.59 ± 0.49 kg/m3 | mass density (353.12 K, 14000 kPa, x2 = 0.0616): 696.76 ± 0.48 kg/m3 | mass density (353.12 K, 14000 kPa, x2 = 0.2801): 691.6 ± 0.49 kg/m3 | mass density (353.12 K, 14000 kPa, x2 = 0.5314): 685.09 ± 0.49 kg/m3 | mass density (353.12 K, 14000 kPa, x2 = 0.7736): 677.61 ± 0.5 kg/m3 | mass density (353.12 K, 15000 kPa, x2 = 0.0616): 697.7 ± 0.49 kg/m3 | mass density (353.12 K, 15000 kPa, x2 = 0.2801): 692.59 ± 0.49 kg/m3 | mass density (353.12 K, 15000 kPa, x2 = 0.5314): 686.08 ± 0.5 kg/m3 | mass density (353.12 K, 15000 kPa, x2 = 0.7736): 678.66 ± 0.51 kg/m3 | mass density (353.12 K, 16000 kPa, x2 = 0.0616): 698.61 ± 0.5 kg/m3 | mass density (353.12 K, 16000 kPa, x2 = 0.2801): 693.55 ± 0.5 kg/m3 | mass density (353.12 K, 16000 kPa, x2 = 0.5314): 687.05 ± 0.51 kg/m3 | mass density (353.12 K, 16000 kPa, x2 = 0.7736): 679.66 ± 0.51 kg/m3 | mass density (353.12 K, 17000 kPa, x2 = 0.0616): 699.52 ± 0.5 kg/m3 | mass density (353.12 K, 17000 kPa, x2 = 0.2801): 694.46 ± 0.51 kg/m3 | mass density (353.12 K, 17000 kPa, x2 = 0.5314): 688 ± 0.51 kg/m3 | mass density (353.12 K, 17000 kPa, x2 = 0.7736): 680.68 ± 0.52 kg/m3 | mass density (353.12 K, 18000 kPa, x2 = 0.0616): 700.43 ± 0.51 kg/m3 | mass density (353.12 K, 18000 kPa, x2 = 0.2801): 695.35 ± 0.51 kg/m3 | mass density (353.12 K, 18000 kPa, x2 = 0.5314): 688.93 ± 0.52 kg/m3 | mass density (353.12 K, 18000 kPa, x2 = 0.7736): 681.63 ± 0.53 kg/m3 | mass density (353.12 K, 19000 kPa, x2 = 0.0616): 701.32 ± 0.51 kg/m3 | mass density (353.12 K, 19000 kPa, x2 = 0.2801): 696.27 ± 0.52 kg/m3 | mass density (353.12 K, 19000 kPa, x2 = 0.5314): 689.85 ± 0.53 kg/m3 | mass density (353.12 K, 19000 kPa, x2 = 0.7736): 682.58 ± 0.53 kg/m3 | mass density (353.12 K, 20000 kPa, x2 = 0.0616): 702.19 ± 0.52 kg/m3 | mass density (353.12 K, 20000 kPa, x2 = 0.2801): 697.16 ± 0.53 kg/m3 | mass density (353.12 K, 20000 kPa, x2 = 0.5314): 690.77 ± 0.53 kg/m3 | mass density (353.12 K, 20000 kPa, x2 = 0.7736): 683.51 ± 0.54 kg/m3 | mass density (353.12 K, 21000 kPa, x2 = 0.0616): 703.05 ± 0.53 kg/m3 | mass density (353.12 K, 21000 kPa, x2 = 0.2801): 698.02 ± 0.53 kg/m3 | mass density (353.12 K, 21000 kPa, x2 = 0.5314): 691.66 ± 0.54 kg/m3 | mass density (353.12 K, 21000 kPa, x2 = 0.7736): 684.41 ± 0.55 kg/m3 | mass density (353.12 K, 22000 kPa, x2 = 0.0616): 703.89 ± 0.53 kg/m3 | mass density (353.12 K, 22000 kPa, x2 = 0.2801): 698.88 ± 0.54 kg/m3 | mass density (353.12 K, 22000 kPa, x2 = 0.5314): 692.54 ± 0.55 kg/m3 | mass density (353.12 K, 22000 kPa, x2 = 0.7736): 685.32 ± 0.55 kg/m3 | mass density (353.12 K, 23000 kPa, x2 = 0.0616): 704.72 ± 0.54 kg/m3 | mass density (353.12 K, 23000 kPa, x2 = 0.2801): 699.72 ± 0.55 kg/m3 | mass density (353.12 K, 23000 kPa, x2 = 0.5314): 693.39 ± 0.55 kg/m3 | mass density (353.12 K, 23000 kPa, x2 = 0.7736): 686.21 ± 0.56 kg/m3 | mass density (353.12 K, 24000 kPa, x2 = 0.0616): 705.52 ± 0.55 kg/m3 | mass density (353.12 K, 24000 kPa, x2 = 0.2801): 700.52 ± 0.55 kg/m3 | mass density (353.12 K, 24000 kPa, x2 = 0.5314): 694.23 ± 0.56 kg/m3 | mass density (353.12 K, 24000 kPa, x2 = 0.7736): 687.06 ± 0.57 kg/m3 | mass density (353.12 K, 25000 kPa, x2 = 0.0616): 706.29 ± 0.55 kg/m3 | mass density (353.12 K, 25000 kPa, x2 = 0.2801): 701.34 ± 0.56 kg/m3 | mass density (353.12 K, 25000 kPa, x2 = 0.5314): 695.07 ± 0.57 kg/m3 | mass density (353.12 K, 25000 kPa, x2 = 0.7736): 687.92 ± 0.58 kg/m3 | mass density (363.02 K, 1000 kPa, x2 = 0.5314): 662.89 ± 0.42 kg/m3 | mass density (363.02 K, 2000 kPa, x2 = 0.5314): 664.16 ± 0.43 kg/m3 | mass density (363.02 K, 3000 kPa, x2 = 0.5314): 665.39 ± 0.43 kg/m3 | mass density (363.02 K, 4000 kPa, x2 = 0.5314): 666.61 ± 0.44 kg/m3 | mass density (363.02 K, 5000 kPa, x2 = 0.5314): 667.85 ± 0.44 kg/m3 | mass density (363.02 K, 6000 kPa, x2 = 0.5314): 669.05 ± 0.45 kg/m3 | mass density (363.02 K, 7000 kPa, x2 = 0.5314): 670.24 ± 0.45 kg/m3 | mass density (363.02 K, 8000 kPa, x2 = 0.5314): 671.39 ± 0.46 kg/m3 | mass density (363.02 K, 9000 kPa, x2 = 0.5314): 672.53 ± 0.46 kg/m3 | mass density (363.02 K, 10000 kPa, x2 = 0.5314): 673.66 ± 0.47 kg/m3 | mass density (363.02 K, 10990 kPa, x2 = 0.5314): 674.79 ± 0.48 kg/m3 | mass density (363.02 K, 12000 kPa, x2 = 0.5314): 675.87 ± 0.48 kg/m3 | mass density (363.02 K, 13000 kPa, x2 = 0.5314): 676.95 ± 0.49 kg/m3 | mass density (363.02 K, 14000 kPa, x2 = 0.5314): 678.01 ± 0.5 kg/m3 | mass density (363.02 K, 15000 kPa, x2 = 0.5314): 679.06 ± 0.5 kg/m3 | mass density (363.02 K, 16000 kPa, x2 = 0.5314): 680.09 ± 0.51 kg/m3 | mass density (363.02 K, 17000 kPa, x2 = 0.5314): 681.1 ± 0.52 kg/m3 | mass density (363.02 K, 18000 kPa, x2 = 0.5314): 682.1 ± 0.52 kg/m3 | mass density (363.02 K, 19000 kPa, x2 = 0.5314): 683.1 ± 0.53 kg/m3 | mass density (363.02 K, 20000 kPa, x2 = 0.5314): 684.05 ± 0.54 kg/m3 | mass density (363.02 K, 21000 kPa, x2 = 0.5314): 685 ± 0.54 kg/m3 | mass density (363.02 K, 22000 kPa, x2 = 0.5314): 685.91 ± 0.55 kg/m3 | mass density (363.02 K, 23000 kPa, x2 = 0.5314): 686.82 ± 0.56 kg/m3 | mass density (363.02 K, 24000 kPa, x2 = 0.5314): 687.69 ± 0.57 kg/m3 | mass density (363.02 K, 25000 kPa, x2 = 0.5314): 688.57 ± 0.57 kg/m3 | mass density (363.03 K, 1000 kPa, x2 = 0.0616): 675.72 ± 0.42 kg/m3 | mass density (363.03 K, 2000 kPa, x2 = 0.0616): 676.86 ± 0.42 kg/m3 | mass density (363.03 K, 3000 kPa, x2 = 0.0616): 678.03 ± 0.43 kg/m3 | mass density (363.03 K, 4000 kPa, x2 = 0.0616): 679.17 ± 0.43 kg/m3 | mass density (363.03 K, 5000 kPa, x2 = 0.0616): 680.28 ± 0.44 kg/m3 | mass density (363.03 K, 6000 kPa, x2 = 0.0616): 681.38 ± 0.44 kg/m3
